ChEMBL document CHEMBL3392952, “Structure guided lead generation for M. tuberculosis thymidylate kinase (Mtb TMK): discovery of 3-cyanopyridone and 1,6-naphthyridin-2-one as potent inhibitors” (J Med Chem, 2015)
Converted amounts (≈) assume the structure as drawn. The source made the active and inactive calls. No cut-off for these calls is given here.

Experiments:
[1] = test system: Mycobacterium tuberculosis; test: Antitubercular activity against Mycobacterium tuberculosis assessed as growth inhibition […] by standard microdilution method; assay type: functional
[2] = target: T1, Thymidylate kinase (Mycobacterium tuberculosis, UniProt P9WKE1); test: Inhibition of Mycobacterium tuberculosis thymidylate kinase activity by pyruvate kinase-lactate dehydrogenase coupled assay
T1 sequence (P9WKE1 whole entry): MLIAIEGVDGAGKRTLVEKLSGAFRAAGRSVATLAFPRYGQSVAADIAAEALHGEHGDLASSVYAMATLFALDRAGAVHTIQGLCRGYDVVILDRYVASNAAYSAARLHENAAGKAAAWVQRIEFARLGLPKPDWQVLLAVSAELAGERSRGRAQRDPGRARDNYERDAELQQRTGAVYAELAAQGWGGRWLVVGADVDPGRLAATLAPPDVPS

[3] = Dissociation constant, pKa of the compound; assay type: physicochemical
[4] = test system: Staphylococcus aureus; test: Inhibition of Staphylococcus aureus thymidylate kinase
[5] = test system: Haemophilus influenzae; test: Inhibition of Haemophilus influenza thymidylate kinase
[6] = test system: Escherichia coli; test: Inhibition of Escherichia coli thymidylate kinase
[7] = target: T2, Thymidylate kinase (Homo sapiens) (UniProt P23919); test: Inhibition of human thymidylate kinase assessed as […] up to 200 uM
T2 sequence (whole entry): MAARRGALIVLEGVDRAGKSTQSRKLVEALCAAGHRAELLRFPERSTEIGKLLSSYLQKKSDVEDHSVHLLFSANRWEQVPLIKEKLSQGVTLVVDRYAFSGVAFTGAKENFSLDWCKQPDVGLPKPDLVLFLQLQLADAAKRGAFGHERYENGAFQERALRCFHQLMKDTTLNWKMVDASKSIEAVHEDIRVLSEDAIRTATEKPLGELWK

Row | SMILES | MIC [1] [µg/mL] | IC50 [2] [nM] | other results
1 | CS(=O)(=O)c1c2c([nH]c(=O)c1C#N)-c1ccccc1OC2 | 32 (≈ 106 µM) | 30000 | –
2 | C[S+]([O-])c1cc(-c2cccs2)[nH]c(=O)c1C#N (stereo not given) | 12 (≈ 45.4 µM) | 820 | –
3 | CSc1cc(-c2cccc(Cl)c2)[nH]c(=O)c1C#N | – | 1900 | –
4 | COc1cccc(-c2nc(SC)c(C#N)c(=O)[nH]2)c1 | – | 8000 | –
5 | CC(C)CCOc1cccc(-c2cc([S+](C)[O-])c(C#N)c(=O)[nH]2)c1 (stereo not given) | 4 (≈ 11.6 µM) | 330 | –
6 | N#Cc1c(-c2ccc(C(=O)O)cc2)c2c([nH]c1=O)-c1cccc(-c3cn[nH]c3)c1CC2 | > 32 | 2 | pKa [3]: 4.4
7 | CSc1cc(-c2cccs2)oc(=O)c1C#N | – | > 50000 | –
8 | CCCc1cc2[nH]c(=O)c(C#N)c(-c3ccccc3)c2c(C)n1 | > 32 | 1000 | –
9 | CSc1cc(-c2cccs2)[nH]c(=O)c1C#N | – | 3600 | –
10 | CS(=O)(=O)c1cc(-c2cccc(OCc3cccc(Cl)c3)c2)[nH]c(=O)c1C#N | 4 (≈ 9.64 µM) | 22 | –
11 | N#Cc1c(-c2ccc(C(=O)O)cc2)c2c([nH]c1=O)-c1ccccc1CC2 | – | 6 | –
12 | CCCc1cc2[nH]c(=O)c(C#N)c(-c3ccc(NS(C)(=O)=O)cc3)c2c(C)n1 | > 32 | 2100 | –
13 | CCc1cc2[nH]c(=O)c(C)c(C)c2c(CC)n1 | – | 133000 | –
14 | CCc1cc2[nH]c(=O)c(C#N)c(-c3ccccc3)c2c(C)n1 | > 32 | 350 | –
15 | CCCc1cc2[nH]c(=O)ccc2c(C)n1 | – | 590000 | –
16 | COc1ccccc1-c1cc(SC)c(C#N)c(=O)[nH]1 | – | > 50000 | –
17 | CSc1cc(-c2ccccn2)[nH]c(=O)c1C#N | – | 18000 | –
18 | COc1cccc(-c2cc(-c3cccc(N)c3)c(C#N)c(=O)[nH]2)c1 | – | 1200 | –
19 | CS(=O)(=O)c1cc(-c2cccc(Br)c2)[nH]c(=O)c1 | > 32 | > 25000 | –
20 | Cc1nccc2nc(O)c(C#N)cc12 | – | 634000 | –
21 | COc1cccc(-c2cc(-c3ccc(N)cc3)c(C#N)c(=O)[nH]2)c1 | – | 1010 | –
22 | CC(C)c1ccc(COc2cccc3c2CCc2c-3[nH]c(=O)c(C#N)c2-c2ccc(C(=O)O)cc2)cc1 | > 32 | 1 | pKa [3]: 4.4

Row | SMILES | MIC [1] [µg/mL] | IC50 [2] [nM] | other results
23 | CC(C)c1ccc(COc2cccc(-c3cc(-c4ccc(C(=O)O)cc4)c(C#N)c(=O)[nH]3)c2)cc1 | – | 6 | –
24 | CC(C)c1ccc(COc2cccc(-c3cc([S+](C)[O-])c(C#N)c(=O)[nH]3)c2)cc1 (stereo not given) | 2 (≈ 4.92 µM) | 32 | –
25 | N#Cc1c(-c2ccc(C(=O)NS(=O)(=O)c3ccccc3)cc2)c2c([nH]c1=O)-c1ccccc1OC2 | > 32 | 2 | pKa [3]: 5
26 | C[S+]([O-])c1cc(-c2cccc(Br)c2)[nH]c(=O)c1C#N (stereo not given) | 4 (≈ 11.9 µM) | 140 | Activity [4]: inactive; Activity [5]: inactive; Activity [6]: inactive
27 | COc1cccc(-c2cc(-c3ccc(C(=O)O)cc3)c(C#N)c(=O)[nH]2)c1 | – | 420 | –
28 | COc1cccc(-c2cc(-c3cccc(C(=O)O)c3)c(C#N)c(=O)[nH]2)c1 | – | 2730 | –
29 | COc1cccc(-c2cc(SC)c(C#N)c(=O)[nH]2)c1 | – | 1500 | Activity [7]: inactive
30 | C[S+]([O-])c1cc(-c2cccc(OC(F)(F)F)c2)[nH]c(=O)c1C#N (stereo not given) | 8 (≈ 23.4 µM) | 240 | Activity [4]: inactive; Activity [5]: inactive; Activity [6]: inactive; Activity [7]: inactive
31 | COc1cccc(-c2cc(-c3cccnc3)c(C#N)c(=O)[nH]2)c1 | – | 2630 | –
32 | CS(=O)(=O)NC(=O)c1ccc(-c2c3c([nH]c(=O)c2C#N)-c2ccccc2OC3)cc1 | > 32 | 5 | pKa [3]: 3.9; Activity [7]: inactive
33 | CCNC(=O)Nc1ccc(-c2cc(-c3cccc(OC)c3)[nH]c(=O)c2C#N)cc1 | – | 250 | Activity [7]: inactive
34 | CCNC(=O)Nc1ccc(-c2c3c([nH]c(=O)c2C#N)-c2cccc(OC)c2CC3)cc1 | > 32 | 17 | –
35 | COc1cccc2c1CCc1c-2[nH]c(=O)c(C#N)c1-c1ccc(C(=O)O)cc1 | > 32 | 5 | pKa [3]: 4.4
36 | COc1ccc(-c2cc(SC)c(C#N)c(=O)[nH]2)cc1 | – | 7700 | –
37 | CCc1cc2[nH]c(=O)c(C#N)c(-c3ccc(NS(C)(=O)=O)cc3)c2c(C)n1 | > 32 | 200 | –
38 | N#Cc1c(-c2ccc(C(=O)O)cc2)c2c([nH]c1=O)-c1cccc(O)c1CC2 | > 32 | 3 | pKa [3]: 4.4; Activity [7]: inactive
39 | COc1cccc(-c2cc(-c3ccc(C(=O)O)cc3)c(C)c(=O)[nH]2)c1 | – | 1200 | –
40 | CSc1cc(-c2cccc(Cl)c2)[nH]c(=O)c1C(N)=O | – | 14300 | –
41 | CSc1cc(-c2ccccc2)nc(O)c1C#N | – | 1900 | –
42 | COc1cccc(-c2cc(-c3ccc(NC(C)=O)cc3)c(C#N)c(=O)[nH]2)c1 | – | 430 | –
43 | CS(=O)(=O)c1cc(-c2cccc(Br)c2)[nH]c(=O)c1C#N | 8 (≈ 22.7 µM) | 100 | –
